Source: the supplement of paper PMC12463676, “Small-molecule dissolution of stress granules by redox modulation benefits ALS models” (Nature Chemical Biology, 2025)

Experiments:
potassium arsenate = compound: O=[As]([O-])(O)O.[K+] [potassium arsenate]; assay: thermal stability z-score vs DMSO; higher = more thermally stabilized by treatment; settings: HeLa; arsenate concentration 1 mM
Procedure: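 Cellular thermal proteome profiling in HeLa cells treated with 1 mM arsenate for 1 h (DMSO pretreatment), heated to ten temperatures (37-66.3 °C). Soluble protein was quantified by TMT mass spectrometry relative to DMSO controls; the thermal stability score was transformed to a z-score; mean of n = 3 experiments.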

lipoamide = compound: NC(=O)CCCCC1CCSS1 [lipoamide]; assay: as above; settings: HeLa, lipoamide concentration 100 µM
Procedure: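 Cellular thermal proteome profiling in HeLa cells. Cells were treated with 100 µM lipoamide for 1 h, with or without 1 mM arsenate for a further 1 h, then heated to ten temperatures (37-66.3 °C), and soluble protein was quantified by TMT mass spectrometry relative to 0.1% DMSO controls. The thermal stability score (sum of log2 fold changes minus the abundance score) was transformed to a z-score; mean of n = 3 experiments.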

[1] = arsenate co-treatment: 1 mM arsenate 1 h
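Further: each temperature applied for 3 min, abundance score taken as mean log2 fold change at the two lowest temperatures, z-score obtained by mean subtraction and division by SD.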

Sequence of UniProt Q9NWK9 (Q9NWK9 whole entry): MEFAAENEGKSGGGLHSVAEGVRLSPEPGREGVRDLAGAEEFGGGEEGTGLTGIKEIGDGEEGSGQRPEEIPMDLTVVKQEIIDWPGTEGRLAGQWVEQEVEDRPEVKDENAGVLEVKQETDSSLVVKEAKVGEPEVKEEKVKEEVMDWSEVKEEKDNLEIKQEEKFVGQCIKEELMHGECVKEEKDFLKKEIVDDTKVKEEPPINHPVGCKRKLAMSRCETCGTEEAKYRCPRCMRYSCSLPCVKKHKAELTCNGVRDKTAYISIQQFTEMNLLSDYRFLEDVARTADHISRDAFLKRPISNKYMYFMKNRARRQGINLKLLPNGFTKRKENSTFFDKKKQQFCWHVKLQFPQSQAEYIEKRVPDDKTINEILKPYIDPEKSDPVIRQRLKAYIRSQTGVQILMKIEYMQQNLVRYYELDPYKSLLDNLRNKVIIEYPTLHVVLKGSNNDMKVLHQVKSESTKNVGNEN
Sequence of UniProt P38435 (P38435 whole entry): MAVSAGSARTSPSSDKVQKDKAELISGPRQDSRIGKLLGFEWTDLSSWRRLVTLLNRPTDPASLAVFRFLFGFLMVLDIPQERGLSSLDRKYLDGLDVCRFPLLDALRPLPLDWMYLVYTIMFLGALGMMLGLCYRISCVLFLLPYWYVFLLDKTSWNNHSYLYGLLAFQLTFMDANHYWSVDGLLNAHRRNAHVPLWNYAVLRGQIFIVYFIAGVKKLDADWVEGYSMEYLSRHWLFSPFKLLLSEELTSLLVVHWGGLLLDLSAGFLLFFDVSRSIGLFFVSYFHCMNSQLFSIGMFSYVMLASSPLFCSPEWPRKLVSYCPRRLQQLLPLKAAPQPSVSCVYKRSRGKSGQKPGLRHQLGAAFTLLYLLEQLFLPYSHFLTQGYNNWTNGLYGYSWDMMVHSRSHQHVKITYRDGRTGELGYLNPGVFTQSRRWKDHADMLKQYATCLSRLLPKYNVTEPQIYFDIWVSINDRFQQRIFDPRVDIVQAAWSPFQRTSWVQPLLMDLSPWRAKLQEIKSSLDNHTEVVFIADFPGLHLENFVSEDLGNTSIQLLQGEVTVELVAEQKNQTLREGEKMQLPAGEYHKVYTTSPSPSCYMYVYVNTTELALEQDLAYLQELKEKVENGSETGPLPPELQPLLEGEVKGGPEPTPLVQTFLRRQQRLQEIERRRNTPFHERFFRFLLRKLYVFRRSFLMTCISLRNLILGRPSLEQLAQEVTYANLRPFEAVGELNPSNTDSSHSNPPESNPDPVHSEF
Sequence of UniProt Q8NG31 (Q8NG31 whole entry): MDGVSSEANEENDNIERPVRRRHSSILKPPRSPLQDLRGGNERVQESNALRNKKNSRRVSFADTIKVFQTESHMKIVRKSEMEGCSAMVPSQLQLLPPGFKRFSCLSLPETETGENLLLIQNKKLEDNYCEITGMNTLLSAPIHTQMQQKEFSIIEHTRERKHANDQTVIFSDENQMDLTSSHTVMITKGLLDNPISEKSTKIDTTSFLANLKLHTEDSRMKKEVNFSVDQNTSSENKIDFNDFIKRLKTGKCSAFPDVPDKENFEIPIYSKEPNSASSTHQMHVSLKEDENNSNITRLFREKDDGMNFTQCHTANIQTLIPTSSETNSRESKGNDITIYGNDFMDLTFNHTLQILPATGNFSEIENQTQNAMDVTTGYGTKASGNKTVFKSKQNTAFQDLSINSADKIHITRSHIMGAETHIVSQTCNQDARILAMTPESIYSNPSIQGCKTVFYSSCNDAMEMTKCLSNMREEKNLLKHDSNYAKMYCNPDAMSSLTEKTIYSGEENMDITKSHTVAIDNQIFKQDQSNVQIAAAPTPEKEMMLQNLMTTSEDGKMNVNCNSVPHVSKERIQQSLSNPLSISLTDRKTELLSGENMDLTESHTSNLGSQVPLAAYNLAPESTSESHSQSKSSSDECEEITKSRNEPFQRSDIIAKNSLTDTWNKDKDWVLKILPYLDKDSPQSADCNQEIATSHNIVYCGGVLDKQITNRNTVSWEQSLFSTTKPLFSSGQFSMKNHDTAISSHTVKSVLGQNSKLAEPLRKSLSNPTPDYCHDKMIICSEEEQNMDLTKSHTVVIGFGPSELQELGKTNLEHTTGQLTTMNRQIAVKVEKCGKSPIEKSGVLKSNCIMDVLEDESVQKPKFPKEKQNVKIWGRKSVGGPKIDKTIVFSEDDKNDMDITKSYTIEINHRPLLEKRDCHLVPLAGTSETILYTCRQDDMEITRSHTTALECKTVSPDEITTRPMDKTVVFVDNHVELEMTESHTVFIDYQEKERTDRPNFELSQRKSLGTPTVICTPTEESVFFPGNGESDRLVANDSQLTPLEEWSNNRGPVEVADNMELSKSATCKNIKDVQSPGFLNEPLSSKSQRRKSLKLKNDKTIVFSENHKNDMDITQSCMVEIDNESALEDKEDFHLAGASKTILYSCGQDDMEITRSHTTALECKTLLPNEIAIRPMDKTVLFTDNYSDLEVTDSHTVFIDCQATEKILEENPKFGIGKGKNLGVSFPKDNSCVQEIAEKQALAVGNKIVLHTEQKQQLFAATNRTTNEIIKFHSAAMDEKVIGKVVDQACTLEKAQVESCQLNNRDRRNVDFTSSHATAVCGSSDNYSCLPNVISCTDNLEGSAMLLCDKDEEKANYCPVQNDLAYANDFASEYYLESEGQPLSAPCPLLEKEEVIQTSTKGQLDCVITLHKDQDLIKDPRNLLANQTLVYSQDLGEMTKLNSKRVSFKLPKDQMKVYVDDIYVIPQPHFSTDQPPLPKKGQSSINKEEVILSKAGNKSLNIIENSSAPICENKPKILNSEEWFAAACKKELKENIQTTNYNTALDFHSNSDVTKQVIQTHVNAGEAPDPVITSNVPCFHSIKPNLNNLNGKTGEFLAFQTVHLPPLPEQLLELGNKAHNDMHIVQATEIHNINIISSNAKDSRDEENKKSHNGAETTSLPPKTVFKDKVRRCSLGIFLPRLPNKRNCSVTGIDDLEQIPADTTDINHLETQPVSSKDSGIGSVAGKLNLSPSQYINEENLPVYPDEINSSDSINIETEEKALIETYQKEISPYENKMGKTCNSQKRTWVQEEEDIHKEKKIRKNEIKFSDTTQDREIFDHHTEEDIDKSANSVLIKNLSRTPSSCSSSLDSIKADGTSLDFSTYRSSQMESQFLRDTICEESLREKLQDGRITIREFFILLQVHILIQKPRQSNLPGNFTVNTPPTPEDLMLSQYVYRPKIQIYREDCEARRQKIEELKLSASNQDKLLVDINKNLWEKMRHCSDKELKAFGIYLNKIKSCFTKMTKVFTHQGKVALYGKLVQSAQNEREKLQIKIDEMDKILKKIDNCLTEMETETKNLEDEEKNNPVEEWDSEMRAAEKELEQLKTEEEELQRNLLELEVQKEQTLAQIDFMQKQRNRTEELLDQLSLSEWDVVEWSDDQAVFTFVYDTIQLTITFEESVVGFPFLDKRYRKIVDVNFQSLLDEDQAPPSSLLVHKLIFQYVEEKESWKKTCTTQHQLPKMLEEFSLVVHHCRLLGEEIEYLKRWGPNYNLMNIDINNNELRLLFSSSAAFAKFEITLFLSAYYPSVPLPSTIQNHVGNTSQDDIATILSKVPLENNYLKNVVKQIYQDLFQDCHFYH
Sequence of UniProt Q9HD15 (Q9HD15 whole entry): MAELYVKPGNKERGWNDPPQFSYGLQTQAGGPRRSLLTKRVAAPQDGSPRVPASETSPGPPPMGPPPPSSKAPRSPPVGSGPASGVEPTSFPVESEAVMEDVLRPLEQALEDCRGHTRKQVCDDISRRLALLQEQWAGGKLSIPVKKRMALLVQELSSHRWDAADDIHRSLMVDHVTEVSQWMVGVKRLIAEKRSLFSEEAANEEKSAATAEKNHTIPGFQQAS
Sequence of UniProt Q8ND56 (Q8ND56 whole entry): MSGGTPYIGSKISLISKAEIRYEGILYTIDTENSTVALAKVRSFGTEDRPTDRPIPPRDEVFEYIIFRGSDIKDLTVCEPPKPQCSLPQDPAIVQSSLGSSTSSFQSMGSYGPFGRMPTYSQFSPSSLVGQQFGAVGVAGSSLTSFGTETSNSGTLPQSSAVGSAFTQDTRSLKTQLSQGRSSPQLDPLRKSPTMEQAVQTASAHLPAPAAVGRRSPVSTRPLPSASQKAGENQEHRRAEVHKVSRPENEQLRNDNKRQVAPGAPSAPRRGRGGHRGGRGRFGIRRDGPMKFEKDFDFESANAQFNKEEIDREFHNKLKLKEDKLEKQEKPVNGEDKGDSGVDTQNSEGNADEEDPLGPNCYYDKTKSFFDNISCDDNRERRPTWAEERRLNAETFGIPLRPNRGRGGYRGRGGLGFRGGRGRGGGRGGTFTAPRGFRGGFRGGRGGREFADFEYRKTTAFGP
Sequence of UniProt P56381 (P56381 whole entry): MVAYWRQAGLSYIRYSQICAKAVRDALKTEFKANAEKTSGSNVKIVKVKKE
Sequence of UniProt O75381 (O75381 whole entry, change not shown): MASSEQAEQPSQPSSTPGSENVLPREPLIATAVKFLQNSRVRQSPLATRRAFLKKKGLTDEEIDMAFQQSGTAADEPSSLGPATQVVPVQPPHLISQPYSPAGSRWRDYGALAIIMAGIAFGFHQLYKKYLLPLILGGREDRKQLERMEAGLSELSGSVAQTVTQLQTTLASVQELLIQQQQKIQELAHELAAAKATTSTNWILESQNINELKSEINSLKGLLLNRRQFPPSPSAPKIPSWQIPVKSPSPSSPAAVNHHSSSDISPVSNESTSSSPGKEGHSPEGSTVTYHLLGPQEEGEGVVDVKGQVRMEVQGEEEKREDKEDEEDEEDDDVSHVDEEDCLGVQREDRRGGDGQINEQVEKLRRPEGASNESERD
Sequence of UniProt Q8WVM0 (Q8WVM0 whole entry): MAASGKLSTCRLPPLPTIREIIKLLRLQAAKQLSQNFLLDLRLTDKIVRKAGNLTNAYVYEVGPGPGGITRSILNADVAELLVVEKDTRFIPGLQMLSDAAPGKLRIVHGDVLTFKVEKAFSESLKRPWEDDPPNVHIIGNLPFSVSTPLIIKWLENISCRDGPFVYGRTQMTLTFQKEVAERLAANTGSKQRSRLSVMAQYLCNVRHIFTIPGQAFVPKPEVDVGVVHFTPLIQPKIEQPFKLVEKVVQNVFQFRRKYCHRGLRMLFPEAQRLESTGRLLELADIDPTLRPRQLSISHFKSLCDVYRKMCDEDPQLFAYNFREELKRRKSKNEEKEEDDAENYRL

Target	thermal stability z-score (potassium arsenate)	thermal stability z-score (lipoamide; [1])	thermal stability z-score (lipoamide; arsenate co-treatment: none)
CASC5 (UniProt Q8NG31)	0.219	-0.0952	-0.0158
TFB1M (UniProt Q8WVM0)	0.0871	-0.367	0.233
P3H2 (UniProt Q8IVL5)	1.11	-4.71	-4.05
GGCX (UniProt P38435)	-0.0562	-0.482	-0.632
HSPD1 (UniProt P10809)	-0.432	-0.0897	0.0259
TENM3 (UniProt Q9P273)	-0.147	0.179	-0.452
CEBPZOS (UniProt A8MTT3)	0.526	0.351	0.365
COG7 (UniProt P83436)	0.224	-0.825	-0.928
LSM14A (UniProt Q8ND56)	1.03	0.62	-0.111
EHMT2 (UniProt Q96KQ7)	-0.273	0.132	0.0958
ADSSL1 (UniProt Q8N142)	0.237	0.111	0.223
ZNHIT6 (UniProt Q9NWK9)	0.0739	1.08	0.924
GNAO1 (UniProt P09471)	-0.313	0.151	-0.44
PPIH (UniProt O43447)	-0.183	0.218	-0.34
PPP1R8 (UniProt Q12972)	0.412	0.0226	-0.142
AGO2 (UniProt Q9UKV8)	-0.204	0.826	0.402
METTL14 (UniProt Q9HCE5)	-0.164	0.355	-0.836
LDAH (UniProt Q9H6V9)	0.0377	-0.0856	-0.00844

Target	thermal stability z-score (potassium arsenate)	thermal stability z-score (lipoamide; [1])	thermal stability z-score (lipoamide; arsenate co-treatment: none)
NIT1 (UniProt Q86X76)	0.439	0.836	0.924
STX18 (UniProt Q9P2W9)	0.066	0.00945	0.0404
RRAS2 (UniProt P62070)	0.544	0.129	0.0499
PEX14 (UniProt O75381)	-0.269	-0.54	-0.596
HINT3 (UniProt Q9NQE9)	-1.57	0.23	0.339
RPLP0 (UniProt P05388)	-0.4	1.08	0.341
MFAP1 (UniProt P55081)	1.73	0.755	0.245
GDPD1 (UniProt Q8N9F7)	-1.05	-0.226	-0.624
WDR36 (UniProt Q8NI36)	-0.285	0.0966	0.698
NRAS (UniProt P01111)	-0.271	0.00516	-0.21
ACTR2 (UniProt P61160)	-0.487	-0.116	-0.175
SRA1 (UniProt Q9HD15)	0.51	0.911	0.998
USP36 (UniProt Q9P275)	-0.265	0.216	-0.0229
JMJD6 (UniProt Q6NYC1)	0.606	-0.363	0.15
ATP5E (UniProt P56381)	0.00933	0.582	0.508
TAMM41 (UniProt Q96BW9)	0.161	-0.232	0.102
ZNF598 (UniProt Q86UK7)	-0.82	0.0109	-0.407
